Laboratory results published in US9670204B2, “Compounds and pharmaceutical compositions thereof for the treatment of inflammatory disorders” (Galapagos NV, priority 2013, dated 2017).
pIC50: −log10 of the molar value.

Key:
[1] = biological target: T1, hENPP2 (UniProtKB/SwissProt Q13822) (Homo sapiens (Human), UniProt Q13822); assay: fluorescent hENPP2 biochemical assay, FS-3 as substrate; details: read-out: FS3-IC50
Summary of the method: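 hENPP2 in 50 mM Tris-HCl pH 8.0, 250 mM NaCl, 5 mM KCl, 1 mM MgCl2, 1 mM CaCl2, 0.1% fatty-acid-free BSA, preincubated with compound 30 min at room temperature. The 0.75 μM FS-3 solution was added and the mixture incubated 30 min at 30° C. Fluorescence (ex 485/em 520 nm) gives IC50.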

[2] = biological target: T1, hENPP2; assay: hENPP2 biochemical assay, LPC as substrate; details: LPC (palmitoyl 16:0) as substrate
Summary of the method: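 Human ENPP2 in 50 mM Tris-HCl pH 8.5, 500 mM NaCl, 5 mM KCl, 10 mM CaCl2, 0.1% fatty-acid-free BSA, reacted 30 min at 37 °C with LPC 16:0 (150 µM solution added 1:1). Released choline measured via choline oxidase/peroxidase/TOOS/4-aminoantipyrine quinoneimine dye at 555 nm; IC50 reported.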

[3] = system: LPA 18:2 in rat plasma; assay: Rat whole blood (plasma) LPA assay; format: biochemical; details: 2 h at 37 C, LPA 18:2 by LC-MS/MS
Summary of the method: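 Heparinised rat plasma spiked with compound (1% DMSO final), incubated 2 h at 37 °C, 5% CO2 with shaking; controls kept at −20 °C. After methanol precipitation with LPA 17:0 internal standard, LPA 18:2 measured by LC-MS/MS (C18, isocratic), relative quantities from peak area without calibration.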

Structure (SMILES)	pIC50 [1]	pIC50 [2]	pIC50 [3]
CCc1nc2ccc(C3CCN(CC(=O)N4CC[C@@H](O)C4)CC3)cn2c1N(C)c1nc(-c2ccc(F)cc2)cs1 [Compound 111, (R)-2-(4-(2-ethyl-3-((4-(4-fluorophenyl)thiazol-2-yl)(methyl)amino)imidazo[1,2-a]pyridin-6-yl)piperidin-1-yl)-1-(3-hydroxypyrrolidin-1-yl)ethanone]	7.00 to 11.00	6.30 to 7.00	6.00 to 6.30
CCc1nc2ccc(C3CCN(CC(=O)N4CC[C@H](O)C4)CC3)cn2c1N(C)c1nc(-c2ccc(F)cc2)cs1 [Compound 112, (S)-2-(4-(2-ethyl-3-((4-(4-fluorophenyl)thiazol-2-yl)(methyl)amino)imidazo[1,2-a]pyridin-6-yl)piperidin-1-yl)-1-(3-hydroxypyrrolidin-1-yl)ethanone]	7.00 to 11.00	6.30 to 7.00	6.30 to 7.00
CCc1nc2ccc(C3CCN(S(C)(=O)=O)CC3)cn2c1N(C)c1nc(-c2ccc(F)cc2)c(CO)s1 [Compound 147, (2-((2-ethyl-6-(1-(methylsulfonyl)piperidin-4-yl)imidazo[1,2-a]pyridin-3-yl)(methyl)amino)-4-(4-fluorophenyl)thiazol-5-yl)methanol]	7.00 to 11.00	6.30 to 7.00	6.30 to 7.00
CCc1nc2ccc(C3CCN(CC(=O)N4CC(O)C4)CC3)cn2c1N(C)c1nc(-c2ccc(F)cc2)c(CO)s1 [Compound 156, 2-(4-(2-ethyl-3-((4-(4-fluorophenyl)-5-(hydroxymethyl)thiazol-2-yl)(methyl)amino)imidazo[1,2-a]pyridin-6-yl)piperidin-1-yl)-1-(3-hydroxyazetidin-1-yl)ethanone]	7.00 to 11.00	6.00 to 6.30	< 6.00
CCc1nc2ccc(C3CCN(CC(=O)N4CC(O)C4)CC3)cn2c1N(C)c1nc(-c2ccc(F)cc2)c(C(=O)C(F)(F)F)s1 [Compound 159, 1-(2-((2-ethyl-6-(1-(2-(3-hydroxyazetidin-1-yl)-2-oxoethyl)piperidin-4-yl)imidazo[1,2-a]pyridin-3-yl)(methyl)amino)-4-(4-fluorophenyl)thiazol-5-yl)-2,2,2-trifluoroethanone]	7.00 to 11.00	7.00 to 11.00	6.30 to 7.00
CCc1nc2ccc(C3CCN(S(C)(=O)=O)CC3)cn2c1N(C)c1nc(-c2ccc(F)cc2)c(C(=O)C(F)(F)F)s1 [Compound 160, 1-(2-((2-ethyl-6-(1-(methylsulfonyl)piperidin-4-yl)imidazo[1,2-a]pyridin-3-yl)(methyl)amino)-4-(4-fluorophenyl)thiazol-5-yl)-2,2,2-trifluoroethanone]	7.00 to 11.00	6.30 to 7.00	7.00 to 11.00
CCc1nc2ccc(N3CCN(CC(=O)N4CC(O)C4)CC3)cn2c1N(C)c1nc(-c2ccc(F)cc2C#N)c(C)s1 [Compound 162, 2-(2-((2-ethyl-6-(4-(2-(3-hydroxyazetidin-1-yl)-2-oxoethyl)piperazin-1-yl)imidazo[1,2-a]pyridin-3-yl)(methyl)amino)-5-methylthiazol-4-yl)-5-fluorobenzonitrile]	7.00 to 11.00	6.30 to 7.00	6.30 to 7.00

Next, values leading:

pIC50 [1]	pIC50 [2]	pIC50 [3]	Structure (SMILES)
7.00 to 11.00	6.00 to 6.30	6.30 to 7.00	CCc1nc2ccc(C3CCN(S(C)(=O)=O)CC3)cn2c1N(C)c1nc(-c2ccc(F)cc2C)cs1 [Compound 98, N-(2-ethyl-6-(1-(methylsulfonyl)piperidin-4-yl)imidazo[1,2-a]pyridin-3-yl)-4-(4-fluoro-2-methylphenyl)-N-methylthiazol-2-amine]
7.00 to 11.00	6.30 to 7.00	6.30 to 7.00	CCc1nc2ccc(C3CCN(CC(=O)N4CC(CO)C4)CC3)cn2c1N(C)c1nc(-c2ccc(F)cc2)cs1 [Compound 113, 2-(4-(2-ethyl-3-((4-(4-fluorophenyl)thiazol-2-yl)(methyl)amino)imidazo[1,2-a]pyridin-6-yl)piperidin-1-yl)-1-(3-(hydroxymethyl)azetidin-1-yl) ethanone]
7.00 to 11.00	6.30 to 7.00	6.00 to 6.30	CCc1nc2ccc(C3CCN(CC(=O)N(C)C)CC3)cn2c1N(C)c1nc(-c2ccc(F)cc2)cs1 [Compound 114, 2-(4-(2-ethyl-3-((4-(4-fluorophenyl)thiazol-2-yl)(methyl)amino)imidazo[1,2-a]pyridin-6-yl)piperidin-1-yl)-N,N-dimethylacetamide]
7.00 to 11.00	7.00 to 11.00	7.00 to 11.00	CCc1nc2ccc(C3CCN(CC(=O)N4CCCC4)CC3)cn2c1N(C)c1nc(-c2ccc(F)cc2)cs1 [Compound 115, 2-(4-(2-ethyl-3-((4-(4-fluorophenyl)thiazol-2-yl)(methyl)amino)imidazo[1,2-a]pyridin-6-yl)piperidin-1-yl)-1-(pyrrolidin-1-yl)ethanone]
7.00 to 11.00	6.30 to 7.00	7.00 to 11.00	CCc1nc2ccc(C3CCN(S(C)(=O)=O)CC3)cn2c1N(C)c1nc(-c2ccc(F)cc2)c(C#N)s1 [Compound 136, 2-((2-ethyl-6-(1-(methylsulfonyl)piperidin-4-yl)imidazo [1,2-a]pyridin-3-yl)(methyl)amino)-4-(4-fluorophenyl) thiazole-5-carbonitrile]
7.00 to 11.00	7.00 to 11.00	7.00 to 11.00	CCc1nc2ccc(N3CCN(CC(=O)N4CC(O)C4)CC3)cn2c1N(C)c1nc(-c2ccc(F)cc2)c(C#N)s1 [Compound 138, 2-((2-ethyl-6-(4-(2-(3-hydroxyazetidin-1-yl)-2-oxoethyl)piperazin-1-yl)imidazo[1,2-a]pyridin-3-yl)(methyl)amino)-4-(4-fluorophenyl)thiazole-5-carbonitrile]
7.00 to 11.00	7.00 to 11.00	7.00 to 11.00	CCc1nc2ccc(C3CCN(CC(=O)N4CC(O)C4)CC3)cn2c1N(C)c1nc(-c2ccc(F)cc2)c(C#N)s1 [Compound 141, 2-((2-ethyl-6-(1-(2-(3-hydroxyazetidin-1-yl)-2-oxoethyl)piperidin-4-yl)imidazo[1,2-a]pyridin-3-yl)(methyl)amino)-4-(4-fluorophenyl)thiazole-5-carbonitrile]
7.00 to 11.00	7.00 to 11.00	7.00 to 11.00	CCc1nc2ccc(C3CCN(CC(=O)N4CC[C@H](O)C4)CC3)cn2c1N(C)c1nc(-c2ccc(F)cc2)c(C#N)s1 [Compound 143, (S)-2-((2-ethyl-6-(1-(2-(3-hydroxypyrrolidin-1-yl)-2-oxoethyl)piperidin-4-yl)imidazo[1,2-a]pyridin-3-yl)(methyl)amino)-4-(4-fluorophenyl)thiazole-5-carbonitrile]
7.00 to 11.00	7.00 to 11.00	7.00 to 11.00	CCc1nc2ccc(C3CCN(CC(=O)N(C)C)CC3)cn2c1N(C)c1nc(-c2ccc(F)cc2)c(C#N)s1 [Compound 145, 2-(4-(3-((5-cyano-4-(4-fluorophenyl)thiazol-2-yl)(methyl)amino)-2-ethylimidazo[1,2-a]pyridin-6-yl)piperidin-1-yl)-N,N-dimethylacetamide]
7.00 to 11.00	6.00 to 6.30	6.30 to 7.00	CCc1nc2ccc(N3CCN(CC(=O)N(C)C)CC3)cn2c1N(C)c1nc(-c2ccc(F)cc2)c(CO)s1 [Compound 155, 2-(4-(2-ethyl-3-((4-(4-fluorophenyl)-5-(hydroxymethyl)thiazol-2-yl)(methyl)amino)imidazo[1,2-a]pyridin-6-yl)piperazin-1-yl)-N,N-dimethylacetamide]
